Biological target: T1, AM2 receptor (1321N1 cells transfected with CALCRL+RAMP3) (Homo sapiens, UniProt O60896+Q16602)
T1 construct: host or cells: 1321N1 cells
Assay: AM2 receptor inhibition, LANCE cAMP agonist-antagonist competition assay
Type: cell-based
Details: inhibition of AM induced cAMP activation, read-out: AM2 D2 protocol: pIC50 (converted)
Outline: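 1321N1 cells co-expressing CALCRL and RAMP3 (2500/well) were preincubated with compound for 30 min at room temperature, then stimulated with adrenomedullin at its EC50 dose for 15 min in HBSS/HEPES/BSA buffer, pH 7.4. cAMP was measured by LANCE TR-FRET and normalised to forskolin (100%) and vehicle (0%) controls.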

T1 sequence (Q16602 23-461): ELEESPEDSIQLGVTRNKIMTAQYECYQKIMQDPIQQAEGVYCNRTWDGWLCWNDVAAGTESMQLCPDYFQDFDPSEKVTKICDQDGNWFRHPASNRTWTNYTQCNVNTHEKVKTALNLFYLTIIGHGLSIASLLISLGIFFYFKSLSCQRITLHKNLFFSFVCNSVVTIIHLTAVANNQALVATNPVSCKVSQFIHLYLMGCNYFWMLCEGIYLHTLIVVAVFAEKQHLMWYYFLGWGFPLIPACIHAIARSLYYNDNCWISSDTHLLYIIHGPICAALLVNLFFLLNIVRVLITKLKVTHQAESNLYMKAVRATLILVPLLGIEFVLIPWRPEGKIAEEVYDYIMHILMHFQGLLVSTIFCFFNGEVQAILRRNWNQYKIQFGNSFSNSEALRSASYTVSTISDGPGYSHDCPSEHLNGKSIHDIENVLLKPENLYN
T1 sequence (O60896 24-148): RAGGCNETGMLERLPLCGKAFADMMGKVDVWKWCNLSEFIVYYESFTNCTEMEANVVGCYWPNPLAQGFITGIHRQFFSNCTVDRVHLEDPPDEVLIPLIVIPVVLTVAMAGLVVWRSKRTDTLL

Row | Structure (SMILES) | IC50 [nM]
1 | CCC1(C(=O)N(CC(=O)Nc2ccc3c(c2)C[C@@]2(C3)C(=O)Nc3ncccc32)Cc2ccccc2CNC)CCN(C(=O)N2CCCCC2)CC1 [Example 104, (R)-4-Ethyl-N-(2-((methylamino)methyl)benzyl)-N-(2-oxo-2-((2′-oxo-1,1′,2′,3-tetrahydrospiro[indene-2,3′-pyrrolo[2,3-b]pyridin]-5-yl)amino)ethyl)-1-(piperidine-1-carbonyl) piperidine-4-carboxamide] | 107
2 | CNCc1ccccc1CN(CC(=O)Nc1ccc2c(c1)C[C@@]1(C2)C(=O)Nc2ncccc21)C(=O)C1(CC(C)C)CCN(C(C)=O)CC1 [Example 125] | 21.4
3 | CNCc1ccccc1CN(CC(=O)Nc1ccc2c(c1)C[C@@]1(C2)C(=O)Nc2ncccc21)C(=O)C1(C)CCN(Cc2ccccc2)CC1 [Example 40, (R)-1-Benzyl-4-methyl-N-(2-((methylamino)methyl)benzyl)-N-(2-oxo-2-((2′-oxo-1,1′,2′,3-tetrahydrospiro[indene-2,3′-pyrrolo[2,3-b]pyridin]-5-yl)amino)ethyl)piperidine-4-carboxamide] | 6.31
4 | CCC1(C(=O)N(CC(=O)Nc2ccc3c(c2)C[C@@]2(C3)C(=O)Nc3ncccc32)Cc2ccccc2CNC)CCN(C(=O)c2cc(C)n[nH]2)CC1 [Example 71, (R)-4-Ethyl-1-(3-methyl-1H-pyrazole-5-carbonyl)-N-(2-((methylamino)methyl)benzyl)-N-(2-oxo-2-((2′-oxo-1,1′,2′,3-tetrahydrospiro[indene-2,3′-pyrrolo[2,3-b]pyridin]-5-yl)amino)ethyl)piperidine-4-carboxamide] | 8.51
5 | CCC1(C(=O)N(CC(=O)Nc2ccc3c(c2)C[C@@]2(C3)C(=O)Nc3ncccc32)Cc2ccccc2CNC)CCN(C(=O)[C@H](C)NC)CC1 [Example 94, 4-Ethyl-N-(2-((methylamino)methyl)benzyl)-1-((S)-2-(methylamino)propanoyl)-N-(2-oxo-2-(((R)-2′-oxo-1,1′,2′,3-tetrahydrospiro[indene-2,3′-pyrrolo[2,3-b]pyridin]-5-yl)amino)ethyl)piperidine-4-carboxamide] | 15.1
6 | CNCc1ccccc1CN(CC(=O)Nc1ccc2c(c1)C[C@@]1(C2)C(=O)Nc2ncccc21)C(=O)C1(C)CCN(CC(N)=O)CC1 [Example 37, (R)-1-(2-Amino-2-oxoethyl)-4-methyl-N-(2-((methylamino)methyl)benzyl)-N-(2-oxo-2-((2′-oxo-1,1′,2′,3-tetrahydrospiro[indene-2,3′-pyrrolo[2,3-b]pyridin]-5-yl)amino)ethyl)piperidine-4-carboxamide] | 35.5
7 | CNCc1ccccc1CN(CC(=O)Nc1ccc2c(c1)C[C@@]1(C2)C(=O)Nc2ncccc21)C(=O)C1(C)CCNCC1 [Example 3, (R)-4-Methyl-N-(2-((methylamino)methyl)benzyl)-N-(2-oxo-2-((2′-oxo-1,1′,2′,3-tetrahydrospiro[indene-2,3′-pyrrolo[2,3-b]pyridin]-5-yl)amino)ethyl)piperidine-4-carboxamide] | 7.76
8 | CCC1(C(=O)N(CC(=O)Nc2ccc3c(c2)C[C@@]2(C3)C(=O)Nc3ncccc32)Cc2ccccc2CNC)CCN(C(C)=O)CC1 [Example 68, (R)-1-Acetyl-4-ethyl-N-(2-((methylamino)methyl)benzyl)-N-(2-oxo-2-((2′-oxo-1,1′,2′,3-tetrahydrospiro[indene-2,3′-pyrrolo[2,3-b]pyridin]-5-yl)amino)ethyl)piperidine-4-carboxamide] | 1.41
9 | CNCc1ccccc1CN(CC(=O)Nc1ccc2c(c1)C[C@@]1(C2)C(=O)Nc2ncccc21)C(=O)C1(C)CCCNC1 (stereo partly drawn) [Example 146, 3-Methyl-N-(2-((methylamino)methyl)benzyl)-N-(2-oxo-2-(((R)-2′-oxo-1,1′,2′,3-tetrahydrospiro[indene-2,3′-pyrrolo[2,3-b]pyridin]-5-yl)amino)ethyl)piperidine-3-carboxamide] | 229
10 | CNCc1ccccc1CN(CC(=O)Nc1ccc2c(c1)C[C@@]1(C2)C(=O)Nc2ncccc21)C(=O)C1(C)CCNC1 (stereo partly drawn) [Example 142, 3-Methyl-N-(2-((methylamino)methyl)benzyl)-N-(2-oxo-2-(((R)-2′-oxo-1,1′,2′,3-tetrahydrospiro[indene-2,3′-pyrrolo[2,3-b]pyridin]-5-yl)amino)ethyl)pyrrolidine-3-carboxamide] | 40.7
11 | CNCc1ccccc1CN(CC(=O)Nc1cc2c(cc1C)CC1(C2)C(=O)Nc2ncccc21)C(=O)C1(C)CCN(C(C)=O)CC1 (stereo not shown) [Example 129, Acetyl-4-methyl-N-(2-((5-methyl-2′-oxo-1,1′,2′,3-tetrahydrospiro[indene-2,3′-pyrrolo[2,3-b]pyridin]-6-yl)amino)-2-oxoethyl)-N-(2-((methylamino)methyl)benzyl)piperidine-4-carboxamide] | 107
12 | CCC1(C(=O)N(CC(=O)Nc2ccc3c(c2)C[C@@]2(C3)C(=O)Nc3ncccc32)Cc2ccccc2CNC)CCN(C(=O)c2ccn(C)n2)CC1 [Example 70, (R)-4-Ethyl-1-(1-methyl-1H-pyrazole-3-carbonyl)-N-(2-((methylamino)methyl)benzyl)-N-(2-oxo-2-((2′-oxo-1,1′,2′,3-tetrahydrospiro[indene-2,3′-pyrrolo[2,3-b]pyridin]-5-yl)amino)ethyl)piperidine-4-carboxamide] | 2.24
13 | CNCc1ccccc1CN(CC(=O)Nc1ccc2c(c1)C[C@@]1(C2)C(=O)Nc2ncccc21)C(=O)C1(C)CCN(C(C)=N)CC1 [Example 58, (R)-1-(1-Iminoethyl)-4-methyl-N-(2-((methylamino)methyl)benzyl)-N-(2-oxo-2-((2′-oxo-1,1′,2′,3-tetrahydrospiro[indene-2,3′-pyrrolo[2,3-b]pyridin]-5-yl)amino)ethyl)piperidine-4-carboxamide] | 2.34
14 | CNCc1ccccc1CN(CC(=O)Nc1ccc2c(c1)C[C@@]1(C2)C(=O)Nc2ncccc21)C(=O)C1(C)CCN(C(=O)C2CCN(C(C)=O)CC2)CC1 [Example 12, (R)-1-(1-Acetylpiperidine-4-carbonyl)-4-methyl-N-(2-((methylamino)methyl)benzyl)-N-(2-oxo-2-((2′-oxo-1,1′,2′,3-tetrahydrospiro[indene-2,3′-pyrrolo[2,3-b]pyridin]-5-yl)amino)ethyl)piperidine-4-carboxamide] | 9.12
15 | CNCc1ccccc1CN(CC(=O)Nc1ccc2c(c1)C[C@@]1(C2)C(=O)Nc2ncccc21)C(=O)C1(C)CCN(C(=O)N2CCCC2)CC1 [Example 57, (R)-4-Methyl-N-(2-((methylamino)methyl)benzyl)-N-(2-oxo-2-((2′-oxo-1,1′,2′,3-tetrahydrospiro[indene-2,3′-pyrrolo[2,3-b]pyridin]-5-yl)amino)ethyl)-1-(pyrrolidine-1-carbonyl)piperidine-4-carboxamide] | 3.63
16 | CCC1(C(=O)N(CC(=O)Nc2ccc3c(c2)C[C@@]2(C3)C(=O)Nc3ncccc32)Cc2ccccc2CNC)CCN(C(=O)C(C)(C)C)CC1 [Example 69, 1-(2,2-Dimethylpropanoyl)-4-ethyl-N-[[2-(methylaminomethyl)phenyl]methyl]-N-[2-oxo-2-[[(3R)-2-oxospiro[1H-pyrrolo[2,3-b]pyridine-3,2′-indane]-5′-yl]amino]ethyl]piperidine-4-carboxamide] | 30.2
17 | CNCc1ccccc1CN(CC(=O)Nc1ccc2c(c1)C[C@@]1(C2)C(=O)Nc2ncccc21)C(=O)C1(CC(F)(F)F)CCN(C(=O)N(C)C)CC1 [Example 121, (R)—N1,N1-Dimethyl-N4-(2-((methylamino)methyl)benzyl)-N4-(2-oxo-2-((2′-oxo-1,1′,2′,3-tetrahydrospiro[indene-2,3′-pyrrolo[2,3-b]pyridin]-5-yl)amino)ethyl)-4-(2,2,2-trifluoroethyl)piperidine-1,4-dicarboxamide] | 10.5
18 | CCC1(C(=O)N(CC(=O)Nc2ccc3c(c2)C[C@@]2(C3)C(=O)Nc3ncccc32)Cc2ccccc2CNC)CCN(C(=O)COCCOCCOC)CC1 [Example 74, (R)-4-Ethyl-1-(2-(2-(2-methoxyethoxy)ethoxy)acetyl)-N-(2-((methylamino)methyl)benzyl)-N-(2-oxo-2-((2′-oxo-1,1′,2′,3-tetrahydrospiro[indene-2,3′-pyrrolo[2,3-b]pyridin]-5-yl)amino)ethyl)piperidine-4-carboxamide] | 8.71
19 | CNCc1ccccc1CN(CC(=O)Nc1ccc2c(c1)CC1(C2)C(=O)Nc2ncccc21)C(=O)C1(C)CCN(C(=O)C2CCC2)CC1 (stereo not shown) [Example 5, 1-(Cyclobutanecarbonyl)-4-methyl-N-(2-((methylamino)methyl)benzyl)-N-(2-oxo-2-((2′-oxo-1,1′,2′,3-tetrahydrospiro[indene-2,3′-pyrrolo[2,3-b]pyridin]-5-yl)amino)ethyl)piperidine-4-carboxamide] | 1.48
20 | CCC1(C(=O)N(CC(=O)Nc2ccc3c(c2)C[C@@]2(C3)C(=O)Nc3ncccc32)Cc2ccccc2CNC)CCN(C(=O)N(C)C)CC1 [Example 99, (R)-4-Ethyl-N1, N1-dimethyl-N4-(2-((methylamino)methyl)benzyl)-N4-(2-oxo-2-((2′-oxo-1,1′,2′,3-tetrahydrospiro[indene-2,3′-pyrrolo[2,3-b]pyridin]-5-yl)amino)ethyl)piperidine-1,4-dicarboxamide] | 1.45
21 | CNCc1ccccc1CN(CC(=O)Nc1ccc2c(c1)CC1(C2)C(=O)Nc2ncccc21)C(=O)C1(C)CCN(C(=O)COC)CC1 (stereo not shown) [Example 21, 1-(2-Methoxyacetyl)-4-methyl-N-(2-((methylamino)methyl)benzyl)-N-(2-oxo-2-((2′-oxo-1,1′,2′,3-tetrahydrospiro[indene-2,3′-pyrrolo[2,3-b]pyridin]-5-yl)amino)ethyl)piperidine-4-carboxamide] | 1.51
22 | CNCc1ccccc1CN(CC(=O)Nc1ccc2c(c1)CC1(C2)C(=O)Nc2ncccc21)C(=O)C12CCN(CC1)CC2 (stereo not shown) [Example 139, N-(2-((Methylamino)methyl)benzyl)-N-(2-oxo-2-((2′-oxo-1,1′,2′,3-tetrahydrospiro[indene-2,3′-pyrrolo[2,3-b]pyridin]-5-yl)amino)ethyl)quinuclidine-4-carboxamide] | 56.2

From patent publication US20230036854A1, “HETEROCYCLIC SPIRO-COMPOUNDS AS AM2 RECEPTOR INHIBITORS” (THE UNIVERSITY OF SHEFFIELD, priority 2018, published 2023)
